# Experimental data taken from patent US20230167073A1 (Teijin Pharma Limited, priority 2020, published 2023).
# Target: T1, Human TRPC6 (Homo sapiens, UniProt Q9Y210)
# T1 construct: expressed in transfected cells
# T1 sequence (Q9Y210 1-931): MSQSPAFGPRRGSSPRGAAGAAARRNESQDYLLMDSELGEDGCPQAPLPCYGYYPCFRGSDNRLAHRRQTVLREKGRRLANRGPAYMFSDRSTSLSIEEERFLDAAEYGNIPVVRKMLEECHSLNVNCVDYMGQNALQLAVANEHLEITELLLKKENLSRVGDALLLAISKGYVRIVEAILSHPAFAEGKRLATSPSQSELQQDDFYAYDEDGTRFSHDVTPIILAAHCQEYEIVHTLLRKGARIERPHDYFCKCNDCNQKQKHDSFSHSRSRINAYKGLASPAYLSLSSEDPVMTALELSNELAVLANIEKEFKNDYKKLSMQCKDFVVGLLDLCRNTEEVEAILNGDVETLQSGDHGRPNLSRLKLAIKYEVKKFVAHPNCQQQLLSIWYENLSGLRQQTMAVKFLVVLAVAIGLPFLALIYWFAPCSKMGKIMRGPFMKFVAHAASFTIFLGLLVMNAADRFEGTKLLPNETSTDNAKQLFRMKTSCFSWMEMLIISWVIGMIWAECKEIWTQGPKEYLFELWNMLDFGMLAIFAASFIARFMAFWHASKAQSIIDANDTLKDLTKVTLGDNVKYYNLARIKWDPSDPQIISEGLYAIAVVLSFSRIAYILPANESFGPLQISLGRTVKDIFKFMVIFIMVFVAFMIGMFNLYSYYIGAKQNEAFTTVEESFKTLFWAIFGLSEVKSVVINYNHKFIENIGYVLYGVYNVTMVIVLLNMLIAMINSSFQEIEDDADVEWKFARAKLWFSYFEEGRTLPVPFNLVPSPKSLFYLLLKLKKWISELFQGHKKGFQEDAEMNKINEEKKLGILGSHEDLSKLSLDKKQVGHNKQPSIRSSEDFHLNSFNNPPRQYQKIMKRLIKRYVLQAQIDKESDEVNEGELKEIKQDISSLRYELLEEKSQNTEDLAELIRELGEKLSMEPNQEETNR
# Assay: Evaluation of TRPC6 channel inhibitory activity (1), FLIPR Calcium 5 Assay Kit, OAG stimulation (Compound Nos. 1-1293)
# Assay type: cell-based
# Details: Human TRPC6 stably-expressing cells, OAG 30 μM, FLIPR Calcium 5 Assay Kit; read-out: Inhibitory activity (pIC50 class) (converted)
# Summary of the method: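 Readout is pIC50 from four-parameter logistic fitting of inhibition of the OAG-evoked (30 μM final) fluorescence calcium signal. Human TRPC6 stable cells are dye-loaded with probenecid, and compound is applied 20 min ahead of agonist.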
row,IC50,Structure (SMILES)
1,10 to 1000 nM,"N#Cc1ccc(-c2ccc(CCN)nc2)c(Oc2cc(N3CCOCC3)nc(C(F)(F)F)n2)c1 [Compound 147, 4-[6-(2-aminoethyl)pyridin-3-yl]-3-[6-morpholin-4-yl-2-(trifluoromethyl)pyrimidin-4-yl]oxybenzonitrile]"
2,10 to 1000 nM,"N#Cc1ccc(-c2ccc(CCN)cn2)c(Oc2cc(N3CCOCC3)nc(C(F)(F)F)n2)c1 [Compound 148, 4-[5-(2-aminoethyl)pyridin-2-yl]-3-[6-morpholin-4-yl-2-(trifluoromethyl)pyrimidin-4-yl]oxybenzonitrile]"
3,< 10 nM,"Cc1nc(Oc2cc(C#N)ccc2-c2ccc(C(O)CN)c(F)c2)cc(N2CCOCC2)n1 (centres unmarked) [Compound 149, 4-[4-(2-Amino-1-hydroxyethyl)-3-fluorophenyl]-3-(2-methyl-6-morpholin-4-ylpyrimidin-4-yl)oxybenzonitrile]"
4,< 10 nM,"Cc1nc(Oc2cc(C#N)ccc2-c2ccc(C(O)CN)c(Cl)c2)cc(N2CCOCC2)n1 (centres unmarked) [Compound 150, 4-[4-(2-amino-1-hydroxyethyl)-3-chlorophenyl]-3-(2-methyl-6-morpholin-4-ylpyrimidin-4-yl)oxybenzonitrile]"
5,10 to 1000 nM,"Cc1nc(Oc2cc(C#N)ccc2-c2ccc(C(O)CN)c(C(F)(F)F)c2)cc(N2CCOCC2)n1 (centres unmarked) [Compound 151, 4-[4-(2-amino-1-hydroxyethyl)-3-(trifluoromethyl)phenyl]-3-(2-methyl-6-morpholin-4-ylpyrimidin-4-yl)oxybenzonitrile]"
6,10 to 1000 nM,"Cc1nc(Oc2cc(C#N)ccc2-c2ccc(C(O)CN)c(O)c2)cc(N2CCOCC2)n1 (centres unmarked) [Compound 152, 4-[4-(2-amino-1-hydroxyethyl)-3-hydroxyphenyl]-3-(2-methyl-6-morpholin-4-ylpyrimidin-4-yl)oxybenzonitrile]"
7,< 10 nM,"Cc1nc(Oc2cc(C#N)ccc2-c2ccc(C(O)CN)c(F)c2F)cc(N2CCOCC2)n1 (centres unmarked) [Compound 153, 4-[4-(2-amino-1-hydroxyethyl)-2,3-difluorophenyl]-3-(2-methyl-6-morpholin-4-ylpyrimidin-4-yl)oxybenzonitrile]"
8,10 to 1000 nM,"N#Cc1ccc(-n2cc(C(O)CN)cn2)c(Oc2cnnc(-c3ccccc3)c2)c1 (centres unmarked) [Compound 154, 4-[4-(2-amino-1-hydroxyethyl)pyrazol-1-yl]-3-(6-phenylpyridazin-4-yl)oxybenzonitrile]"
9,10 to 1000 nM,"N#Cc1ccc(-n2cc(C(O)CN)cn2)c(Oc2cc(N3CCOCC3)nc(C(F)(F)F)n2)c1 (centres unmarked) [Compound 155, 4-[4-(2-amino-1-hydroxyethyl)pyrazol-1-yl]-3-[6-morpholin-4-yl-2-(trifluoromethyl)pyrimidin-4-yl]oxybenzonitrile]"
10,10 to 1000 nM,"COc1cc(-c2ccc(C#N)cc2Oc2cc(N3CCOCC3)nc(C)n2)ccc1C(O)CN (centres unmarked) [Compound 156, 4-[4-(2-amino-1-hydroxyethyl)-3-methoxyphenyl]-3-(2-methyl-6-morpholin-4-ylpyrimidin-4-yl)oxybenzonitrile]"
11,< 10 nM,"Cc1nc(Oc2cc(C#N)ccc2-c2ccc(C(O)CN)cc2C)cc(N2CCOCC2)n1 (centres unmarked) [Compound 157, 4-[4-(2-amino-1-hydroxyethyl)-2-methylphenyl]-3-(2-methyl-6-morpholin-4-ylpyrimidin-4-yl)oxybenzonitrile]"
12,10 to 1000 nM,"Cc1nc(Oc2cc(C#N)ccc2-c2ccc(C(O)CN)c(CC#N)c2)cc(N2CCOCC2)n1 (centres unmarked) [Compound 158, 4-[4-(2-amino-1-hydroxyethyl)-3-(cyanomethyl)phenyl]-3-(2-methyl-6-morpholin-4-ylpyrimidin-4-yl)oxybenzonitrile]"
13,< 10 nM,"Cc1nc(Oc2cc(C#N)ccc2-n2cc(C(O)CN)cn2)cc(-c2cccc(Cl)c2)n1 (centres unmarked) [Compound 159, 4-[4-(2-amino-1-hydroxyethyl)pyrazol-1-yl]-3-[6-(3-chlorophenyl)-2-methylpyrimidin-4-yl]oxybenzonitrile]"
14,< 10 nM,"Cn1nc(-c2ccccn2)cc1Oc1cc(C#N)ccc1-c1ccc(CCN)cc1 [Compound 160, 4-[4-(2-aminoethyl)phenyl]-3-(2-methyl-5-pyridin-2-ylpyrazol-3-yl)oxybenzonitrile]"
